Results on 13 molecules are retold here after US10266513B2 (Pfizer Inc., priority 2012, dated 2019).

Assay [1] addresses human full-length BTK Kinase (Homo sapiens (Human), UniProt Q06187). Nature of the assay: Human BTK LanthaScreen Assay (TR-FRET). Conditions: 50 μM ATP, FAM-Srctide peptide substrate, read-out: BTK Inhibition IC50. The format is biochemical. From the text:
Human BTK LanthaScreen Assay
(TR-FRET usually uses a lanthanide donor and a delayed reading to cut background.)

The subject of the next assay is Human B cells. The assay is described as follows: Human Primary B Cell Proliferation Assay (3H-thymidine incorporation, anti-human IgM stimulated). The format is cell-based. The note with it: purified human B cells, 50 μg/mL anti-human IgM F(ab')2, 72 hours. As for the experimental part: Human Primary B Cell Proliferation Assay
Human B cells were purified from buffy coats using the human B cell RosetteSep kit per manufacturer's instructions. Purified cells were resuspended in RPMI-10% HIFCS, 2 mM L-glutamine, 100 U/mL penicillin, 100 μg/ml streptomycin, incubated with compounds for 1 hour at 37° C. and then stimulated with 50 μg/mL anti-human IgM F(ab′)2 for 72 hours. ^3H-thymidine was included in the culture media for the final 8-16 hours. Cells were harvested and ^3H-thymidine incorporation was measured.
Human B cell Proliferation Assay
For orientation: Uptake of a labelled nucleoside into DNA is a usual measure of proliferation.

The next assay has as its system human whole blood. Nature of the assay: Human Whole Blood Histamine Assay (anti-IgE induced histamine release). It is filed as cell-based. The note with it: heparinized human whole blood, anti-human-IgE 2 μg/ml, histamine release by ELISA; read-out: HWB IC50. As for the experimental part: Human Whole Blood Histamine Assay
Heparinized human whole blood (200 μl) was plated in 96-well V-bottom assay plates (VWR). Compounds diluted in 100% DMSO (1 μl) were added and incubated at 37° C. for 120 minutes. Anti-human-IgE antibody (KPL) was added to a final concentration of 2 μg/ml and assay plates incubated for 30 minutes at 37° C. Plates were spun at 2000 rpm for 8 minutes and the analyzed for histamine release by ELISA kits (Beckman Coulter).
Inhibition curves and IC50 values are determined using Excel-fit.

Another assay concerns the target human EGFR kinase domain (Homo sapiens (Human), UniProt P00533). Nature of the assay: Human EGFR LanthaScreen Selectivity Assay (TR-FRET). The format is biochemical. The note with it: 20 μM ATP.

Sequence of human full-length BTK Kinase (Q06187 whole entry): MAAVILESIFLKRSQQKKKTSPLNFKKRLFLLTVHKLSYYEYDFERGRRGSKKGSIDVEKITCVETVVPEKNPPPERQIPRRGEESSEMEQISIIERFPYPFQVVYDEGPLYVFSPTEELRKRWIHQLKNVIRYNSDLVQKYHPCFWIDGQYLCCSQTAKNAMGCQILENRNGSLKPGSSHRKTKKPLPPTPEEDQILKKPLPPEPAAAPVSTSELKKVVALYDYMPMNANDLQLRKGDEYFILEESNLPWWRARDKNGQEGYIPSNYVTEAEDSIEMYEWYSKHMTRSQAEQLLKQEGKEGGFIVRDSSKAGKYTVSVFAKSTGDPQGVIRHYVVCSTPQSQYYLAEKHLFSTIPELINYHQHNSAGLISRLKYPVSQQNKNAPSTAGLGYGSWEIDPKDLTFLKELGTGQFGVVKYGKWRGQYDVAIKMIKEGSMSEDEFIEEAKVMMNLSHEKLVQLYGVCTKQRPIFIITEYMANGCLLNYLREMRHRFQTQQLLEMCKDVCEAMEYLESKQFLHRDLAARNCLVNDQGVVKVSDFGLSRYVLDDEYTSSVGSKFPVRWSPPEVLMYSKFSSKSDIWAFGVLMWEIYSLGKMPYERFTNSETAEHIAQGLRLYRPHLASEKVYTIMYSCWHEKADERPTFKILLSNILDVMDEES
Sequence of human EGFR kinase domain (P00533 712-979): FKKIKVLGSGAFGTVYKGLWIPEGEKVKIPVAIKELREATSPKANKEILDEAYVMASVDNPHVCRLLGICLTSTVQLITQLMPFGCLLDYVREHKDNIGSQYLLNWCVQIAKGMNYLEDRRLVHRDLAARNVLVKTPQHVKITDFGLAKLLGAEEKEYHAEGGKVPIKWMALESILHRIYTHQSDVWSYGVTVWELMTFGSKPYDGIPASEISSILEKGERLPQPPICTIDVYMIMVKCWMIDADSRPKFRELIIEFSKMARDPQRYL
Experimental for human EGFR kinase domain: The kinase reaction mixtures were incubated at room temperature for 60 minutes before stopping the kinase activity by the addition of 15 mM EDTA. The extent of peptide phosphorylation by EGFR was detected using a Terbium-conjugated anti-phospho-Tyrosine antibody (Tb-PT66 antibody, invitrogen # PV3557).

For `N#CN1CCCC(n2nc(-c3ccc(Oc4ccc(F)cc4F)cc3)c(C(N)=O)c2N)C1` (single isomer, unassigned) [Example 27], the half-maximal inhibitory concentration (IC50) (usually the concentration at which inhibition is half-maximal) is 1.3 nM in assay [1], 2.7 nM in the assay on Human B cells (B-cell), 64.3 nM in the assay on human whole blood and 16800 nM against human EGFR kinase domain.

Turning to `N#CN1CCC[C@@H](n2nc(-c3ccc(Oc4ccc(Cl)cn4)cc3)c(C(N)=O)c2N)C1` [Example 110, (R)-5-amino-3-(4-((5-chloropyridin-2-yl)oxy)phenyl)-1-(1-cyanopiperidin-3-yl)-1H-pyrazole-4-carboxamide], the IC50 in assay [1] was 9.2 nM; in the assay with Human B cells (B-cell), 1.6 nM; in the assay on human whole blood, 94.7 nM; at human EGFR kinase domain, > 15400 nM.

As for `N#CN1CCC[C@@H](n2nc(-c3ccc(Oc4cccc(C(F)(F)F)n4)cc3)c(C(N)=O)c2N)C1` [Example 116, (R)-5-amino-1-(1-cyanopiperidin-3-yl)-3-(4-((6-(trifluoromethyl)pyridin-2-yl)oxy)phenyl)-1H-pyrazole-4-carboxamide], the IC50 in assay [1] was 2.6 nM; with Human B cells (B-cell) it was 14.9 nM; in the assay with human whole blood, 41.8 nM; at human EGFR kinase domain it was > 26800 nM.

Consider `N#CN1CCC[C@@H](n2nc(-c3ccc(Oc4ncc(Cl)cc4F)cc3)c(C(N)=O)c2N)C1` [Example 118, (R)-5-amino-3-(4-((5-chloro-3-fluoropyridin-2-yl)oxy)phenyl)-1-(1-cyanopiperidin-3-yl)-1H-pyrazole-4-carboxamide], for which the IC50 was 7.6 nM in assay [1], 29.6 nM in the assay with Human B cells (B-cell), 50 nM in the assay with human whole blood and > 50000 nM against human EGFR kinase domain.

Turning to `C=CC(=O)N1CCC[C@@H](n2nc(-c3ccc(Oc4ccc(Cl)cc4)cc3)c(C(N)=O)c2N)C1` [Example 130, 1-[(3R)-1-acryloylpiperidin-3-yl]-5-amino-3-[4-(4-chlorophenoxy)phenyl]-1H-pyrazole-4-carboxamide], the concentration for half-maximal inhibition (IC50) stood at 0.17 nM in assay [1], 0.15 nM in the assay on Human B cells (B-cell), 133 nM in the assay on human whole blood and 7.9 nM at human EGFR kinase domain.

For the molecule `NC(=O)c1c(-c2ccc(Oc3ccc(Cl)cc3)cc2)nn([C@@H]2CCCN(C(=O)/C=C/CO)C2)c1N` [Example 131, 5-amino-3-[4-(4-chlorophenoxy)phenyl]-1-{(3R)-1-[(2E)-4-hydroxybut-2-enoyl]piperidin-3-yl}-1H-pyrazole-4-carboxamide], the IC50 in assay [1] was found to be 2.3 nM; in the assay on Human B cells (B-cell), 1.6 nM; with human whole blood, 259 nM; against human EGFR kinase domain, 2200 nM.

Take `C=CC(=O)N1CCC[C@H](n2nc(-c3ccc(Oc4ccc(F)cc4F)cc3)c(C(N)=O)c2N)C1` [Example 136, 1-[(3S)-1-acryloylpiperidin-3-yl]-5-amino-3-[4-(2,4-difluorophenoxy)phenyl]-1H-pyrazole-4-carboxamide]: the IC50 turned out to be 7.8 nM in assay [1]; 0.44 nM in the assay on Human B cells (Homo sapiens, B-cell); 570 nM in the assay on human whole blood; 214 nM against human EGFR kinase domain.

`C=CC(=O)N1CCC[C@@H](n2nc(-c3ccc(Oc4ccc(F)cc4F)cc3)c(C(N)=O)c2N)C1` [Example 137, 1-[(3R)-1-acryloylpiperidin-3-yl]-5-amino-3-[4-(2,4-difluorophenoxy)phenyl]-1H-pyrazole-4-carboxamide]: the IC50 was 0.25 nM in assay [1], 0.63 nM in the assay on Human B cells, 31.4 nM in the assay with human whole blood and 25.6 nM at human EGFR kinase domain.

In the case of `NC(=O)c1c(-c2ccc(Oc3ccc(F)cc3F)cc2)nn([C@@H]2CCCN(C(=O)/C=C/CF)C2)c1N` [Example 145, 5-amino-3-[4-(2,4-difluorophenoxy)phenyl]-1-{(3R)-1-[(2E)-4-fluorobut-2-enoyl]piperidin-3-yl}-1H-pyrazole-4-carboxamide], the IC50 in assay [1] was 2.8 nM; in the assay on Human B cells (B-cell), 11.8 nM; in the assay on human whole blood it was 126 nM; against human EGFR kinase domain, 2180 nM.

Take `NC(=O)c1c(-c2ccc(Oc3ccc(F)cc3F)cc2)nn([C@@H]2CCCN(C(=O)/C=C/CO)C2)c1N` [Example 151, 5-am no-3-[4-(2,4-difluorophenoxy)phenyl]-1-{(3R)-1-[(2E)-4-hydroxybut-2-enoyl]-piperidin-3-yl}-1H-pyrazole-4-carboxamide]: the IC50 in assay [1] amounted to 2.3 nM; in the assay with Human B cells (B-cell), 0.22 nM; in the assay with human whole blood, 258 nM; against human EGFR kinase domain it was 12100 nM.

With `C=CC(=O)N1CCC[C@@H](n2nc(-c3ccc(Oc4ccc(Cl)cn4)cc3)c(C(N)=O)c2N)C1` [Example 157, 1-[(3R)-1-acryloylpiperidin-3-yl]-5-amino-3-{4-[(5-chloropyridin-2-yl)oxy]phenyl}-1H-pyrazole-4-carboxamide], the IC50 in assay [1] amounted to 1.3 nM; with Human B cells (B-cell), 24.2 nM; in the assay on human whole blood it was 98.7 nM; on human EGFR kinase domain it was 29.7 nM.

In the case of `C=CC(=O)N1CCC[C@@H](n2nc(-c3ccc(Oc4cccc(C(F)(F)F)n4)cc3)c(C(N)=O)c2N)C1` [Example 161, 1-[(3R)-1-acryloylpiperidin-3-yl]-5-amino-3-(4-{[6-(trifluoromethyl)pyridin-2-yl]oxy}phenyl)-1H-pyrazole-4-carboxamide], the IC50 turned out to be 1.2 nM in assay [1], 3 nM with Human B cells (B-cell), 52.7 nM in the assay with human whole blood and 89.8 nM against human EGFR kinase domain.

As for `NC(=O)c1c(-c2ccc(Oc3cccc(C(F)(F)F)n3)cc2)nn([C@@H]2CCCN(C(=O)/C=C/CO)C2)c1N` [Example 162, 5-amino-1-{(3R)-1-[(2E)-4-hydroxybut-2-enoyl]piperidin-3-yl}-3-(4-{[6-(trifluoromethyl)pyridin-2-yl]oxy}phenyl)-1H-pyrazole-4-carboxamide], the IC50 came out at 9.8 nM in assay [1], 103 nM with Human B cells (B-cell), 343 nM with human whole blood and 14100 nM against human EGFR kinase domain.
